Assay results published in patent publication US20040253139A1, “Environmental surface disinfectant” (priority 2003, published 2004).

Tested on: E. coli (ATCC 25922)
Assay: Lower effective concentration of ethyl lactate, modification of AOAC Method 956.17
Type: cell-based
Conditions: 15% solution of ethyl lactate, exposure 10 minutes
Description: Using a modification of AOAC Method 956.17, the lower effective concentration for ethyl lactate was tested against E. coli (ATCC 25922) at three reaction times at varying concentrations of ethyl lactate.

SMILES: CCOC(=O)C(C)O (stereo not shown) [ethyl lactate]
- Bacterial growth: eliminated bacterial growth
